Measured values reported in publication PMC6516043, “Functional Analysis of the Chemosensory Protein GmolCSP8 From the Oriental Fruit Moth, Grapholita molesta (Busck) (Lepidoptera: Tortricidae)” (Frontiers in Physiology, 2019).
Where two headings read alike, the source gives them in different places.

Tests used:
rGmolCSP8 [1] = target: T1, rGmolCSP8 (Grapholita molesta, UniProt A0A0M4FML8); assay: Fluorescence competitive binding assay (1-NPN displacement), wild-type
Protocol: The fluorescence spectra were recorded using a fluorescence spectrophotometer (F-4500, Hitachi, Tokyo, Japan) in a 1 cm light path fluorimeter quartz cuvette with 10 nm slits for excitation and 20 nm slits for emission. […] The fluorescent probe N-phenyl-1-naphthylamine (1-NPN) and all putative ligands used in binding assays were dissolved in methanol (HPLC purity grade) to obtain a 1 mM stock solution. The rGmolCSP8 protein was diluted to in 20 mM Tris–HCl to obtain a 2 μM solution, pH 7.4. […] The fluorescent probe was excited at 337 nm and emission spectra were recorded from 370 to 550 nm. […] Binding data were obtained from three replicates assays for each concentration of each tested ligand.

GmolCSP8-V40A = GmolCSP8-V40A (Grapholita molesta, UniProt A0A0M4FML8, V55A); assay: biochemical; assay type: binding
Protocol: (§1) To determine whether GmolCSP8 is involved in odorant binding, fluorescence competitive binding assays were performed ([Zhong et al., 2012]). The fluorescence spectra were recorded using a fluorescence spectrophotometer (F-4500, Hitachi, Tokyo, Japan) in a 1 cm light path fluorimeter quartz cuvette with 10 nm slits for excitation and 20 nm slits for emission. The selected chemicals are listed in Table 2, and included four sex pheromone components and 34 volatiles from different host plants (peach and pear trees) of G. molesta based on previous investigations ([Natale et al., 2004]; [Lu et al., 2012]; [Najar-Rodriguez et al., 2013b]). The fluorescent probe N-phenyl-1-naphthylamine (1-NPN) and all putative ligands used in binding assays were dissolved in methanol (HPLC purity grade) to obtain a 1 mM stock solution. The rGmolCSP8 protein was diluted to in 20 mM Tris–HCl to obtain a 2 μM solution, pH 7.4. To measure the binding affinity of 1-NPN for GmolCSP8, a 2 μM solution of protein was titrated with aliquots of 1 mM 1-NPN prepared to final concentrations ranging from 1 to 22 μM. The fluorescent probe was excited at 337 nm and emission spectra were recorded from 370 to 550 nm. […] Binding data were obtained from three replicates assays for each concentration of each tested ligand. Dissociation constants (Kd) of protein to 1-NPN were calculated by non-linear regression, using GraphPad Prism 4.00 software (GraphPad Software Inc.). The inhibition constants (Ki) of the competitors were determined using the corresponding IC50 values (concentration of competitor that reduced the initial fluorescence intensity by half) based on the following equation: Ki = [IC50]/(1+[1-NPN]/K1-NPN), where [1-NPN] is the free concentration of 1-NPN and K1-NPN is the dissociation constant of the complex GmolCSP8/1-NPN.
(§2) To verify the four predicted key amino acid sites of GmolCSP8 binding for 1-hexanol, recombinant plasmids for four CSP8 mutants were obtained via site-directed mutagenesis experiments. Specific primers introducing mutation sites of the four key amino acid CSP8 plasmids (GmolCSP8-T27A, GmolCSP8-L30A, GmolCSP8-V40A, and GmolCSP8-L80A) were designed and are listed in Table 1. The four mutants were mutated by using the TaKaRa MutanBEST Kit (TaKaRa, Shiga, Japan) with the pMD®19-T/GmolCSP8 plasmid DNA as template. All plasmids containing mutations were validated by sequencing with five randomly selected single colonies. pMD®19-T plasmids including four CSP8 mutants were digested with Bam HI and Hind III restriction enzymes. Then, the target sequences were ligated into the expression vector pET28a (+) and transformed into BL21 (DE3) competent cells for expression. After sequencing verification, the corresponding rGmolCSP8 mutant proteins were induced and purified, and the binding affinities to 1-hexanol and its analogs were verified via ligand-binding assays according to the method described above.

GmolCSP8-L30A = GmolCSP8-L30A (Grapholita molesta, UniProt A0A0M4FML8, L45A); assay: biochemical; assay type: binding; conditions: for binding to mutant L30A (in words): mutant L30A compared with wild-type
Protocol: as §1, §2

GmolCSP8-T27A = GmolCSP8-T27A (Grapholita molesta, UniProt A0A0M4FML8, T42A); assay: biochemical; assay type: binding
Protocol: as §1, §2

GmolCSP8-L80A = GmolCSP8-L80A (Grapholita molesta, UniProt A0A0M4FML8, L95A); assay: biochemical; assay type: binding
Protocol: as §1, §2

rGmolCSP8 [2] = target: T1, rGmolCSP8; assay: Effect of pH on the binding affinity of rGmolCSP8
Protocol: Based on the fluorescent binding assays described above, we further assessed the effects of pH on the binding abilities of GmolCSP8 with strongly bound ligand. The binding affinities of rGmolCSP8 to the representative ligand 1- hexanol were measured at six different pH values (4.0, 5.0, 6.8, 7.4, 8.0, and 8.8) in 20 mM Tris–HCl buffer. pH was adjusted by titrating concentrated hydrochloric acid using a PHS-3E pH meter (Shanghai Precision Scientific Instrument Co., Ltd., Shanghai, China). The binding assays and data processing were performed as described previously.
FIGURE 7 Effects of pH on the binding affinities of rGmolCSP8 with 1-hexanol. The mixture solution of 2 μM rGmolCSP8 protein and 2 μM 1-NPN was titrated with 1 mM 1-hexanol stock solution to final concentrations of 22 μM. All data represent a mean of three independent measurements, and the bars denote mean ± SEM.

GmolOBP8 = target: GmolOBP8; design: method as in Li et al., 2016a,b; conditions: ref Li et al., 2016a,b; cited from earlier work
GmolOBP15 = target: GmolOBP15; design: method as in Li et al., 2016a,b; conditions: ref Li et al., 2016a,b; cited from earlier work
GmolGOBP2 = target: GmolGOBP2; design: method as in Li et al., 2016a,b; conditions: ref Li et al., 2016a,b; cited from earlier work
[3] = 2 μM rGmolCSP8 and 2 μM 1-NPN, 20 mM Tris-HCl pH 7.4, read-out: IC50
[4] = 2 μM rGmolCSP8 and 2 μM 1-NPN, pH 7.4, calculated from IC50, read-out: Ki
[5] = read-out: Ki (μM) L30A, mutant L30A, – = lost ability to bind
[6] = read-out: Ki (μM) T27A, mutant T27A, – = did not displace 50% 1-NPN at ligand up to 24 μM

T1 sequence (A0A0M4FML8 entry or part of it): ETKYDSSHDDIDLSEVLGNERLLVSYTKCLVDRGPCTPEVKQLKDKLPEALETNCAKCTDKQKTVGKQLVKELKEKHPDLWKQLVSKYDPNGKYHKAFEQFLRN
Chain of GmolCSP8-L30A (A0A0M4FML8 entry or part of it L45A): as the sequence (A0A0M4FML8 entry or part of it) above, with L30A counted along it
Chain of GmolCSP8-V40A (A0A0M4FML8 entry or part of it V55A): as the sequence (A0A0M4FML8 entry or part of it) above, with V40A counted along it
Chain of GmolCSP8-L80A (A0A0M4FML8 entry or part of it L95A): as the sequence (A0A0M4FML8 entry or part of it) above, with L80A counted along it
Chain of GmolCSP8-T27A (A0A0M4FML8 entry or part of it T42A): as the sequence (A0A0M4FML8 entry or part of it) above, with T27A counted along it

CC(=O)OCCC(C)C [Isoamyl acetate]
IC50 (rGmolCSP8 [1]; [3]): > 24 µM | Ki (rGmolCSP8 [1]; [4]): > 24 µM

CCCCCO [1-pentanol]
Ki (GmolCSP8-V40A): 12.4 ± 1.41 µM | binding to mutant L30A (in words) (GmolCSP8-L30A): lost its ability to bind | Ki (GmolCSP8-L30A; [5]): > 24 µM | IC50 (GmolCSP8-T27A): > 24 µM | Ki (GmolCSP8-T27A; [6]): > 24 µM | Ki (GmolCSP8-L80A): 6.66 ± 0.64 µM | IC50 (rGmolCSP8 [1]; [3]): 8.79 ± 0.99 µM | Ki (rGmolCSP8 [1]; [4]): 8.18 ± 0.93 µM

CC/C=C\CCOC(C)=O [Cis-3-hexenyl acetate]
IC50 (rGmolCSP8 [1]; [3]): > 24 µM | Ki (rGmolCSP8 [1]; [4]): > 24 µM | binding to rGmolCSP8 (in words) (rGmolCSP8 [1]; wild-type rGmolCSP8, pH 7.4): cannot bind

CCCCCCCO [1-heptanol]
Ki (GmolCSP8-V40A): 9.68 ± 0.75 µM | binding to mutant L30A (in words) (GmolCSP8-L30A): lost its ability to bind | Ki (GmolCSP8-L30A; [5]): > 24 µM | Ki (GmolCSP8-T27A): 9.01 ± 0.9 µM | fold decrease in binding vs wild-type (GmolCSP8-T27A; mutant T27A compared with wild-type rGmolCSP8): 1.5- to 2.0 fold | Ki (GmolCSP8-L80A): 6.02 ± 0.66 µM | IC50 (rGmolCSP8 [1]; [3]): 6.79 ± 0.56 µM | Ki (rGmolCSP8 [1]; [4]): 6.2 ± 0.42 µM

CCCCCCCCCC=O [Decanal]
IC50 (rGmolCSP8 [1]; [3]): > 24 µM | Ki (rGmolCSP8 [1]; [4]): > 24 µM

CC/C=C\CCO [Cis-3-hexen-1-ol]
IC50 (rGmolCSP8 [1]; [3]): 9.14 ± 0.73 µM | Ki (rGmolCSP8 [1]; [4]): 8.51 ± 0.68 µM

CCCCCCCCCCCCCCCCCC [Octadecane]
IC50 (rGmolCSP8 [1]; [3]): > 24 µM | Ki (rGmolCSP8 [1]; [4]): > 24 µM

CCCCCC(=O)OCC [Ethyl hexanoate]
IC50 (rGmolCSP8 [1]; [3]): > 24 µM | Ki (rGmolCSP8 [1]; [4]): > 24 µM

CCCCCCO [1-hexanol]
Ki (GmolCSP8-V40A): 2.67 ± 0.34 µM | Ki (GmolCSP8-L30A): 12.5 ± 1.12 µM | fold decrease in binding vs wild-type (GmolCSP8-L30A; mutant L30A compared with wild-type rGmolCSP8): 6 fold | IC50 (GmolCSP8-T27A): > 24 µM | binding to mutant T27A (in words) (GmolCSP8-T27A; mutant T27A compared with wild-type): abolished the ability to bind | Ki (GmolCSP8-T27A; [6]): > 24 µM | Ki (GmolCSP8-L80A): 1.8 ± 0.15 µM | binding affinity (in words) (rGmolCSP8 [2]; pH 4.0): very weak affinity | effect of pH on binding affinity (in words) (rGmolCSP8 [2]; pH 4.0, 5.0, 6.8, 7.4, 8.0, 8.8 in 20 mM Tris-HCl): higher at pH 6.8–8.0 than at pH 4.0–5.0 and 8.8 | binding affinity (in words) (rGmolCSP8 [2]; pH 6.8–8.0): strong binding affinity | IC50 (rGmolCSP8 [1]): 2.26 ± 0.34 µM | binding to rGmolCSP8 (in words) (rGmolCSP8 [1]; wild-type rGmolCSP8, pH 7.4): strongest binding affinities

COC(=O)c1ccccc1O [Methyl salicylate]
IC50 (rGmolCSP8 [1]; [3]): > 24 µM | Ki (rGmolCSP8 [1]; [4]): > 24 µM

CCCCCCCCCCCCCC [Tetradecane]
IC50 (rGmolCSP8 [1]; [3]): > 24 µM | Ki (rGmolCSP8 [1]; [4]): > 24 µM

CCCCOC(C)=O [Butyl acetate]
IC50 (rGmolCSP8 [1]): > 24 µM | Ki (rGmolCSP8 [1]): > 24 µM

CCCCCCCCCCCCCCCC [Hexadecane]
IC50 (rGmolCSP8 [1]; [3]): > 24 µM | Ki (rGmolCSP8 [1]; [4]): > 24 µM

CC/C=C\CC1C(=O)CCC1CC(=O)OC (centres unmarked) [Methyl jasmonate]
IC50 (rGmolCSP8 [1]; [3]): > 24 µM | Ki (rGmolCSP8 [1]; [4]): > 24 µM

CCCCCCCCCCCCO [1-dodecanol]
Ki (GmolOBP8): 4.39 µM | Ki (GmolOBP15): 3.24 µM | IC50 (rGmolCSP8 [1]; [3]): 13.5 ± 0.83 µM | Ki (rGmolCSP8 [1]; [4]): 12.9 ± 0.56 µM | binding affinity class (strong/medium/weak) (rGmolCSP8 [1]; wild-type rGmolCSP8, pH 7.4): medium (an IC50 value between 10 and 20 μM indicated that ligands demonstrated medium binding ability to protein) | Ki (GmolGOBP2): 1.22 µM

CCCCCCOC(C)=O [Hexyl acetate]
IC50 (rGmolCSP8 [1]; [3]): > 24 µM | Ki (rGmolCSP8 [1]; [4]): > 24 µM

CCCCCCCCCC [Decane]
IC50 (rGmolCSP8 [1]; [3]): > 24 µM | Ki (rGmolCSP8 [1]; [4]): > 24 µM

CCCCCCCCCCCCCCC [Pentadecane]
IC50 (rGmolCSP8 [1]; [3]): > 24 µM | Ki (rGmolCSP8 [1]; [4]): > 24 µM

CCC/C=C\CCCCCCCO [(Z)-8-dodecenyl alcohol]
IC50 (rGmolCSP8 [1]; [3]): > 24 µM | Ki (rGmolCSP8 [1]; [4]): > 24 µM
